Data: the supplement of paper PMC10331698
± gives the standard deviation of the averaged measurements.

How the values were obtained:
Assay in all cases: level (log10 ratio to DMSO vehicle control); higher = higher biomarker level / cell amount than vehicle control
[1] = compound: O=S(=O)(O)CCC(F)(F)C(F)(F)C(F)(F)C(F)(F)F [4:2 Fluorotelomer sulfonic acid]; details: in DMSO
Protocol: (§1)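 BioMAP Diversity Plus panel of 12 human primary cell co-culture systems (3C, 4H, LPS, SAg, BT, BF4T, BE3C, CASM3C, HDF3CGF, KF3CT, MyoF, Mphg). Compounds were added 1 h before stimulation and left for 24 h (MyoF 48 h; BT 72 h for soluble read-outs or 6 d for IgG). Biomarkers were read by ELISA, cytotoxicity by SRB, PBMC viability and proliferation by Alamar Blue. Each well value was divided by the mean of 8 DMSO control wells on the same plate and log10 transformed; duplicate blinded samples were tested at 4 concentrations.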

[2] = compound: FC(F)(I)C(F)(F)C(F)(F)C(F)(F)C(F)(F)C(F)(F)I [1,6-Diiodoperfluorohexane]; details: 6700 nM; in DMSO
Protocol: as §1

Perfluorooctanoic acid = compound: O=C(O)C(F)(F)C(F)(F)C(F)(F)C(F)(F)C(F)(F)C(F)(F)C(F)(F)F [Perfluorooctanoic acid]; details: in DMSO
Protocol: as §1

Methotrexate = compound: CN(Cc1cnc2nc(N)nc(N)c2n1)c1ccc(C(=O)N[C@@H](CCC(=O)O)C(=O)O)cc1 [Methotrexate]; details: in DMSO
Protocol: as §1

[3] = compound: C=CC(=O)OCCC(F)(F)C(F)(F)C(F)(F)C(F)(F)C(F)(F)C(F)(F)C(F)(F)C(F)(F)F [8:2 Fluorotelomer acrylate]; details: in DMSO
Protocol: as §1

[4] = compound: O=C(O)C(F)(F)C(F)(F)C(F)(F)C(F)(F)C(F)(F)C(F)(F)C(F)(F)F [Ammonium perfluorooctanoate]; details: in DMSO
Protocol: as §1

[5] = compound: OCCCCC(F)(F)C(F)(F)C(F)(F)C(F)(F)F [4:4 Fluorotelomer alcohol]; details: in DMSO
Protocol: as §1

Row | Test System | level (log10) ([1]; 6700 nM) | level (log10) ([1]; 20000 nM) | level (log10) ([1]; 60000 nM) | level (log10) [2] | level (log10) (Perfluorooctanoic acid; 6700 nM) | level (log10) (Perfluorooctanoic acid; 20000 nM) | level (log10) (Perfluorooctanoic acid; 60000 nM) | level (log10) (Methotrexate; 1500 nM) | level (log10) (Methotrexate; 4400 nM) | level (log10) (Methotrexate; 13000 nM) | level (log10) (Methotrexate; 40000 nM) | level (log10) ([3]; 6700 nM) | level (log10) ([3]; 20000 nM) | level (log10) ([3]; 60000 nM) | level (log10) ([4]; 6700 nM) | level (log10) ([4]; 20000 nM) | level (log10) ([4]; 60000 nM) | level (log10) ([5]; 6700 nM) | level (log10) ([5]; 20000 nM) | level (log10) ([5]; 60000 nM)
1 | lMphg:CCL2/MCP-1 | 0.0005 ± 0.047 | 0.006 ± 0.025 | -0.001 ± 0.0071 | -0.029 | 0.018 ± 0.0071 | 0.036 ± 0.0028 | 0.025 ± 0.025 | 0.0115 ± 0.03 | 0.008 ± 0.035 | -0.0105 ± 0.033 | -0.0055 ± 0.021 | 0.0035 ± 0.021 | -0.0025 ± 0.0064 | -0.0235 ± 0.039 | 0.0045 ± 0.016 | 0.005 ± 0.016 | 0.0065 ± 0.0021 | -0.0295 ± 0.037 | -0.0145 ± 0.00071 | 0.009 ± 0.0071
2 | CASM3C:CXCL8/IL-8 | 0.0035 ± 0.0035 | -0.0095 ± 0.026 | 0.0075 ± 0.025 | -0.02 | 0.014 ± 0.0085 | 0.009 ± 0.0042 | 0.052 ± 0.014 | 0.0365 ± 0.057 | 0.0255 ± 0.06 | 0.034 ± 0.05 | 0.063 ± 0.061 | -0.0185 ± 0.012 | -0.0165 ± 0.00071 | -0.0085 ± 0.00071 | 0.005 ± 0.0099 | 0.0085 ± 0.013 | 0.049 ± 0.033 | 0.0125 ± 0.0035 | 0.0095 ± 0.032 | 0.026 ± 0.045
3 | CASM3C:HLA-DR | 0.0045 ± 0.0064 | -0.017 ± 0.014 | -0.0115 ± 0.00071 | -0.006 | 0.0045 ± 0.015 | -0.0045 ± 0.0021 | -0.0045 ± 0.043 | 0.0795 ± 0.0021 | -0.004 ± 0.068 | -0.079 ± 0.013 | 0.0375 ± 0.015 | -0.0145 ± 0.0078 | -0.0045 ± 0.0021 | 0.022 ± 0.013 | 0.0085 ± 0.012 | -0.0055 ± 0.0021 | 0.0015 ± 0.023 | -0.0045 ± 0.019 | -0.015 ± 0.0042 | 0.019 ± 0.027
4 | lMphg:sIL-10 | 0.015 ± 0.041 | -0.0485 ± 0.032 | -0.0545 ± 0.0064 | -0.219 | -0.0525 ± 0.032 | -0.0035 ± 0.11 | -0.219 ± 0.051 | 0.076 ± 0.03 | 0.05 ± 0.011 | 0.0485 ± 0.023 | 0.014 ± 0.028 | -0.058 ± 0.016 | -0.014 ± 0.062 | -0.0465 ± 0.012 | -0.0655 ± 0.049 | -0.042 ± 0.021 | -0.16 ± 0.028 | -0.096 ± 0.11 | -0.032 ± 0.0028 | -0.014 ± 0.041
5 | MyoF:Collagen IV | -0.0075 ± 0.00071 | -0.037 ± 0.0057 | -0.0225 ± 0.025 | 0.063 | 0.011 ± 0.014 | 0.051 ± 0.033 | 0.214 ± 0.03 | -0.0195 ± 0.025 | 0.004 ± 0.033 | 0.007 ± 0.061 | -0.014 ± 0.016 | -0.022 ± 0.0042 | -0.002 ± 0.0057 | -0.0135 ± 0.036 | 0.06 ± 0.0099 | 0.0745 ± 0.0035 | 0.225 ± 0.05 | 0.002 ± 0.03 | -0.009 ± 0.044 | 0.0145 ± 0.063
6 | CASM3C:CD106/VCAM-1 | 0.0035 ± 0.0078 | -0.0285 ± 0.025 | -0.0325 ± 0.005 | -0.041 | -0.033 ± 0.011 | -0.0165 ± 0.00071 | 0.019 ± 0.017 | -0.022 ± 0.05 | 0.016 ± 0.0014 | 0.009 ± 0.0028 | -0.002 ± 0.027 | -0.033 ± 0.0042 | -0.039 ± 0.037 | 0.004 ± 0.025 | 0.0115 ± 0.015 | -0.0085 ± 0.013 | -0.021 ± 0.025 | -0.015 ± 0.03 | -0.0205 ± 0.00071 | 0.006 ± 0.027
7 | CASM3C:CCL2/MCP-1 | -0.002 ± 0.0057 | 0.0015 ± 0.011 | 0.0125 ± 0.036 | -0.006 | 0.007 ± 0.0085 | -0.01 ± 0.03 | 0.0215 ± 0.022 | 0 ± 0.0028 | -0.0125 ± 0.005 | -0.002 ± 0.016 | -0.0195 ± 0.025 | -0.0085 ± 0.0021 | -0.012 ± 0.016 | 0.0085 ± 0.032 | 0.008 ± 0.017 | -0.004 ± 0.0014 | 0.051 ± 0.033 | -0.004 ± 0.011 | -0.025 ± 0.0099 | 0.0285 ± 0.059
8 | HDF3CGF:MMP-1 | -0.009 ± 0.0028 | -0.0285 ± 0.028 | -0.0365 ± 0.026 | -0.303 | -0.0155 ± 0.0064 | -0.048 ± 0.0085 | -0.035 ± 0.023 | -0.0085 ± 0.005 | -0.0135 ± 0.0021 | 0.0005 ± 0.0021 | 0.0065 ± 0.028 | 0.0165 ± 0.015 | 0.026 ± 0.011 | 0.0235 ± 0.029 | 0.027 ± 0.0085 | -0.002 ± 0.0099 | -0.027 ± 0.062 | -0.008 ± 0.0028 | 0.006 ± 0.0014 | 0.004 ± 0.0042
9 | 3C:CD106/VCAM-1 | -0.022 ± 0.028 | 0.006 ± 0.024 | 0.005 ± 0.021 | -0.043 | -0.0435 ± 0.053 | -0.0325 ± 0.05 | -0.013 ± 0.067 | -0.0115 ± 0.044 | -0.005 ± 0.021 | 0.0055 ± 0.035 | -0.0135 ± 0.026 | -0.0185 ± 0.015 | -0.027 ± 0.041 | -0.024 ± 0.05 | 0.004 ± 0.03 | -0.0025 ± 0.03 | 0.019 ± 0.041 | -0.01 ± 0.0057 | -0.01 ± 0.016 | -0.0015 ± 0.0035
10 | KF3CT:CCL2/MCP-1 | -0.0205 ± 0.012 | -0.0125 ± 0.012 | -0.0015 ± 0.025 | -0.251 | 0.005 ± 0.018 | 0.0145 ± 0.029 | -0.0785 ± 0.011 | 0.052 ± 0.023 | -0.0125 ± 0.03 | -0.016 ± 0.024 | 0.0165 ± 0.0021 | -0.0265 ± 0.042 | -0.0415 ± 0.0092 | -0.0725 ± 0.04 | 0.011 ± 0.024 | -0.0245 ± 0.036 | -0.119 ± 0.0064 | -0.0035 ± 0.057 | 0.004 ± 0.044 | 0.0225 ± 0.042
11 | HDF3CGF:Proliferation 72hr | -0.022 ± 0.092 | 0.001 ± 0.021 | -0.007 ± 0.047 | -0.919 | 0.06 ± 0.041 | 0.15 ± 0.005 | 0.0875 ± 0.0078 | -0.0885 ± 0.042 | -0.076 ± 0.13 | -0.0515 ± 0.036 | -0.083 ± 0.05 | -0.011 ± 0.0099 | -0.026 ± 0.044 | -0.154 ± 0.076 | 0.058 ± 0.065 | 0.124 ± 0.018 | 0.119 ± 0.021 | -0.003 ± 0.044 | 0.0205 ± 0.057 | 0.0355 ± 0.039
12 | HDF3CGF:Collagen I | -0.0015 ± 0.054 | -0.007 ± 0.0057 | 0.0385 ± 0.018 | 0.053 | -0.025 ± 0.0028 | 0.0005 ± 0.016 | 0.0395 ± 0.054 | -0.0495 ± 0.079 | -0.077 ± 0.083 | -0.068 ± 0.095 | -0.0415 ± 0.035 | -0.025 ± 0.0028 | -0.008 ± 0.0071 | 0.0325 ± 0.018 | 0.0285 ± 0.019 | 0.01 ± 0.021 | -0.0645 ± 0.088 | -0.0175 ± 0.067 | -0.0175 ± 0.071 | 0.031 ± 0.13
13 | 3C:CCL2/MCP-1 | 0.0035 ± 0.023 | 0.003 ± 0.054 | 0.0065 ± 0.025 | 0.01 | 0.0055 ± 0.016 | 0.008 ± 0.0071 | 0.04 ± 0.034 | 0.0505 ± 0.0064 | -0.013 ± 0.027 | 0.0065 ± 0.0078 | 0.028 ± 0.028 | 0.005 ± 0.0042 | -0.0155 ± 0.0064 | 0.019 ± 0.016 | -0.002 ± 0.0099 | 0.004 ± 0.025 | 0.0315 ± 0.035 | 0.004 ± 0.014 | -0.0205 ± 0.011 | -0.0105 ± 0.037
